Patent US20150175585A1, “FUSED QUINONIC COMPOUNDS” (CENTRO ATLANTICO DEL MEDICAMENTO S.A (CEAMED, S.A.), priority 2012, published 2015)

Test system: STAT5
Experiment: STAT5 phosphorylation western blot assay
Format: cell-based, human
Conditions: 10 microM, HEL or K562 cells (table does not say which)
Experimental: The Human Erythroleukemia cell line HEL and the human Chronic Myeloid Leukemia cell line K562 were cultured in RPM I 1640 medium containing 10% fetal bovine serum (FBS) and 50 U/ml penicillin/50 U/ml streptomycin at 37° C. in a 5% CO2 humidified atmosphere to a density of 300.000 viable cells/mL in presence of WP1066 (positive control of phosphorylation inhibition) (Verstovsek et al., 2008) or CM-363 at concentrations of 1, 5 and 10 μM. Cell culture reagents were all obtained from BioWhittaker® (Lonza, Verniers, Belgium). Cell growth and viability was determined by propidium iodide (fluorescent dye) exclusion method using the Accuchip 4× Counting Kit and the ADAM automatic cell counter (Digital-Bio, NanoEntek, Ic., Washington St, Mass., USA).As a control of unspecific phosphorylation, some cells in each experiment were exposed to vehicle (negative control of phosphorylation inhibition) (0.1% DMSO).
For total protein extraction, cells were scraped with RIPA 1× lysis buffer (25 mM Tris-HCl pH 7.6, 150 mM NaCl, 1% NP-40, 1% sodium deoxycholate, 0.1% SDS, no. 89900, Thermo Scientific, Rockford, Ill., USA) supplemented with 1× protease and 1× phosphatase inhibitor cocktails (100× Halt™ Protease Inhibitor Cocktail, no. 87786 and 100× Halt Phosphatase Inhibitor Cocktail, no. 78420, both from Thermo Scientific, Rockford, Ill., USA). An aliquot of each extract was preserved for protein quantification by bicinchoninic acid assay (Pierce® BCA Protein Assay Kit, no. 23225, Thermo Scientific, Rockford, Ill., USA).
Proteins were solubilized in sample buffer containing 0.0625 M Tris-HCl, pH 6.8, 2.3% (wt/vol) SDS, 10% (vol/vol) glycerol, 5% (vol/vol) f3-mercaptoethanol, and 0.001% (wt/vol) bromophenol blue and boiled at 95° C. for 5 min. Equal amounts (50 μg) of each sample were electrophoresed on 8-10% sodium dodecyl sulfate-polyacrylamide gel electrophoresis (SDS-PAGE) and transferred to nitrocellulose membranes (iBlot® Gel Transfer Stacks, Nitrocellulose, no. IB4010-02, Invitrogen, Barcelona, Spain) as described previously (Fernandez, L, et al., Endocrinology, 13, 1815-1824, 1998; B. Guerra et al., J. Neurochem, 91, 99-109, 2004; B. Guerra et al., J. Appl. Physiol., 102, 1786-1792, 2007; B. Guerra et al., J. Appl. Physiol., 111, 715-725, 2011). The nitrocellulose membranes were then removed from the iBlot® Dry GelTransfer Device (no. IB1001EU, Invitrogen, Barcelona, Spain) and placed in a Ponceau S staining solution (0.5% Ponceau S and 1% glacial acetic acid in water) to verify equal loading of protein in the control and treated samples. After the membranes were stained for 5 min, they were rinsed for 2 min and examined. Equal loading of protein was verified, and the membranes were rinsed for an additional 10 min and immunoscreened. Membranes were blocked with 5% blotting grade blocker nonfat dry milk in Tris Buffered Saline with 0.05% Tween 20 (TBST; blotto-blocking buffer) for at least […]) at room temperature. They were washed thrice in TBS with 0.1% Tween 20 (TBST-0.1). Next, the membranes were incubated over night at 4° C. with the appropriate anti-phospho-antibodies (described below) all diluted (1:1000) in 1% bovine serum albumin (BSA)-1% blotto in TBST (BSA-blotto blocking buffer). […] Membranes were stripped of bound antibodies by incubation in stripping buffer (Restore™ Western Blot Stripping Buffer, no. 21059, Thermo Scientific, Rockford, Ill., USA) at room temperature for 30 min with agitation. Membranes were washed for 3×10 min in TBST-0.1, blocked with blotto-blocking buffer for at least 1 h and re-probed with the corresponding anti-total kinase antibodies (described below) all diluted (1:1000) in blotto-blocking buffer. […]

## N#Cc1ccc(C2C3=C(CCCC3=O)OC3=C2C(=O)c2ccccc2C3=O)cc1 (stereo not shown) [Compound 4, 4-(1,6,11-trioxo-2,3,4,6,11,12-hexahydro-1H-benzo[b]xanthen-12-yl)benzonitrile]
  Activity (inhibition of STAT5 phosphorylation): +++ (+++represents an inhibition at 10 microM > 75%)
